Measured values reported in US5407660A, “Diagnostic liposomal compositions for enhancing NMR imaging” (Mallinckrodt Medical, Inc., priority 1993, dated 1995).
“Also recorded” adds a separate entry of the source. Where two headings read alike, the source gives them in different places.

Tests used:
[1] = assay type: in vivo, marmosets; conditions: for T1 (mean), Blood: 0.3 ml/kg, pre-contrast 507
[2] = system: isolated perfused rabbit heart; assay: Intracoronary cardiotoxicity in the isolated perfused rabbit heart (IPRH)
Description: (§1) In addition, the cardiotoxic effects of single bolus intracoronary arterial injections of 4, 8, 16 or 32 mg MnCl2 were evaluated in the isolated perfused rabbit heart (IPRH).
(§2) The aqueous vehicle for the suspension of negatively charged liposomes consisted of 0.9% NaCl buffered with 0.003 M sodium phosphate, pH 7.4. The lipid concentration was 50 μmol/ml.
A total of 8 female, New Zealand albino rabbits, with body weights ranging from 1.97-2.96 kg were used in the study.
Rabbits were sacrificed by cervical dislocation, the hearts excised and coronary perfusion was performed at constant pressure via the aortic root using an oxygenated physiological salt solution (Chenoweth's solution) heated to 37° C. A 0.8%, w/v, solution of MnCl2 was heated to 37° C. and intracoronary bolus injections of 0.5, 1.0, 2.0 and 4.0 ml were made in each of the six hearts via a sidearm of the perfusion apparatus. A period of time sufficient to allow the heart to stabilize was allowed between injections. The heart rate (HR), contractile force (CF) and electrocardiogram (ECG) were recorded on a Grass Model 7 polygraph. The maximal percentage changes from pre-injection control values for HR and CF were determined during intervals of […] and 15-30 seconds after injection. The percentage changes from control HR and CF were also recorded at 1, 2, 3 and 4 minutes after injection. The ECG was examined for arrhythmias. When ventricular fibrillation (VF) occurred, no calculations were performed with CF and HR data from that injection.

[3] = Acute intravenous toxicity in mice (Example 4); conditions: for Cumulative Mortalities/Number Dosed, Female / Cumulative Mortalities/Number Dosed, Male: 7 days; for LD50: 7-day observation
Description: as §1, §2
A total of 60 mice, 30 males (body weight range of 20-33.5 g) and 30 females (body weight range of 19.1-29.7 g) were used. Fifty of the mice were Swiss ICR, CD-1, obtained from Charles River and ten were Swiss CF-1 obtained from Sasco (Omaha, Neb.).
The four test substances were administered via the lateral tail vein of the mouse at a rate of 1 ml/min with the following doses given.

[4] = Biodistribution of 54MnNa2 EDTA and 54Mn-L in rats (Example 5); assay type: in vivo, Sprague-Dawley rats
Description: A total of forty Sprague-Dawley rats (20 male, 217-295 g; 20 female, 151-208 g; Charles River) were used. Drinking water was provided ad libitum. The animals, 2 males and 2 females per group, were selected randomly from their cages and were identified with indelible ink numbers at tail bases before test substance administration.
Rats were divided into 10 groups consisting of 2 male and 2 female rats per group. […] Immediately after dosing, rats were housed in individual metabolism cages. Ground Purina Laboratory Chow and water were supplied ad libitum to animals sacrificed at 24 and 48 hr after treatment. Rats from both ^54 NmNa2 EDTA and ^54 Mn-L treatment groups were sacrificed by cervical dislocation at 0.5, 2, 4, 24 and 48 hr after treatment, and the following samples were obtained: injection site, blood, liver, lung, spleen, heart, kidneys, salivary gland (submaxillary), brain, bone with marrow, muscle and fat. Urine samples were obtained from animals sacrificed at all intervals of 2 hr or more after injection and fecal samples were obtained from animals sacrificed at 24 and 48 hr after treatment. […] The entire organ weights were determined for the remaining tissues.
Levels of radioactivity in the biological specimens and aliquots of the injected test substances were determined using a gamma scintillation spectrometer (Model 1085, Nuclear Chicago Corp., Des Plaines, Ill.). Results were calculated on a percent dose/organ (or fluid) and a percent dose/g (or ml) basis using an HP-85 desk top computer (Hewlett Packard, Fort Collins, Colo.).
Kinetic data for the elimination of radioactivity from liver, spleen, kidneys, heart and bone with marrow were curve fitted by the peeling and least-square methods, to mono or bi-exponential equations: [formula]
The half-life (t 1/2) for each elimination phase was calculated as 0.693/Ki. The square of the correlation coefficient (r^2) for each elimination phase was calculated as an indication of variability.

[5] = 32 mg dose, 0-15 s, only 1 heart, all others had VF

SMILES: O.O.O=C([O-])CN(CC(=O)[O-])[C@@H]1CCCC[C@H]1N(CC(=O)[O-])CC(=O)[O-].[Mn+2].[Na+].[Na+] (relative stereo) [EXAMPLE 1 (E), disodium (trans-1,2-diaminocyclohexane-N,N,N',N'-tetraacetate) manganese dihydrate]
- Blood (5 min) and liver T1 values (in words) ([1]; 0.3 ml/kg i.v.): substantially reduced
- several other tissue T1's (in words) ([1]; 0.3 ml/kg i.v.): slightly reduced
- T1 (mean), Blood ([1]; 5 minute): 375
- T1 (mean), Blood ([1]; 10 minute): 454
- Tissue T1 (mean), Bladder ([1]; 15 min after 0.3 ml/kg): 217
- Tissue T1 (mean), Fat ([1]; 15 min after 0.3 ml/kg): 68
- Tissue T1 (mean), Large Intestine ([1]; 15 min after 0.3 ml/kg): 185
- Tissue T1 (mean), Liver ([1]; 15 min after 0.3 ml/kg): 32
- Tissue T1 (mean), Lung ([1]; 15 min after 0.3 ml/kg): 280
- Tissue T1 (mean), Pancreas ([1]; 15 min after 0.3 ml/kg): 103
- Tissue T1 (mean), Renal Cortex ([1]; 15 min after 0.3 ml/kg): 152
- Tissue T1 (mean), Renal Medulla ([1]; 15 min after 0.3 ml/kg): 209
- Tissue T1 (mean), Skeletal Muscle ([1]; 15 min after 0.3 ml/kg): 206
- Tissue T1 (mean), Small Intestine ([1]; 15 min after 0.3 ml/kg): 107
- Tissue T1 (mean), Spleen ([1]; 15 min after 0.3 ml/kg): 221
- Tissue T1 (mean), Stomach ([1]; 15 min after 0.3 ml/kg): 145
- Tissue T1 (mean), Heart ([1]; 15 min after 0.3 ml/kg (0.118 mmol Mn(II)/kg)): 183
- T1 (mean), Blood ([1]; 15 minute): 511
- Cardiovascular effects ([1]; in vivo, iv): minimal

SMILES: [Cl][Mn][Cl] [MnCl2, manganese (II) chloride]
- Incidence of Ventricular Fibrillation (VF) ([2]; 4 mg dose): 0/6
- Mean % Change in Contractile Force (CF) ([2]; 4 mg dose, 0-15 s): -5%
- Mean % Change in Heart Rate (HR) ([2]; 4 mg dose, 0-15 s): -2%
- Mean % Change in Contractile Force (CF) ([2]; 4 mg dose, 15-30 s): -28%
- Mean % Change in Heart Rate (HR) ([2]; 4 mg dose, 15-30 s): -2%
- Mean % Change in Contractile Force (CF) ([2]; 4 mg dose, 1 min): -12%
- Mean % Change in Contractile Force (CF) ([2]; 4 mg dose, 2 min): +5%
- Mean % Change in Heart Rate (HR) ([2]; 4 mg dose, 2 min): -2%
- Incidence of Ventricular Fibrillation (VF) ([2]; 8 mg dose): 0/6
- Mean % Change in Contractile Force (CF) ([2]; 8 mg dose, 0-15 s): -74%
- Mean % Change in Heart Rate (HR) ([2]; 8 mg dose, 0-15 s): -8%
- Mean % Change in Contractile Force (CF) ([2]; 8 mg dose, 15-30 s): -38%
- Mean % Change in Heart Rate (HR) ([2]; 8 mg dose, 15-30 s): -7%
- Mean % Change in Contractile Force (CF) ([2]; 8 mg dose, 1 min): -17%
- Mean % Change in Heart Rate (HR) ([2]; 8 mg dose, 1 min): -7%
- Mean % Change in Contractile Force (CF) ([2]; 8 mg dose, 2 min): +2%
- Mean % Change in Heart Rate (HR) ([2]; 8 mg dose, 2 min): -6%
- Incidence of Ventricular Fibrillation (VF) ([2]; 16 mg dose): 2/6
- Mean % Change in Contractile Force (CF) ([2]; 16 mg dose, 0-15 s): -92%
- Mean % Change in Heart Rate (HR) ([2]; 16 mg dose, 0-15 s): -31%
- Mean % Change in Contractile Force (CF) ([2]; 16 mg dose, 15-30 s): -61%
- Mean % Change in Heart Rate (HR) ([2]; 16 mg dose, 15-30 s): -14%
- Mean % Change in Contractile Force (CF) ([2]; 16 mg dose, 1 min): -37%
- Mean % Change in Heart Rate (HR) ([2]; 16 mg dose, 1 min): -14%
- Mean % Change in Contractile Force (CF) ([2]; 16 mg dose, 2 min): -1%
- Mean % Change in Heart Rate (HR) ([2]; 16 mg dose, 2 min): -11%
- premature ventricular contractions in hearts which did not fibrillate ([2]; 16 mg dose, during or immediately after injection): two of the four hearts
- Incidence of Ventricular Fibrillation (VF) ([2]; 32 mg dose): 5/6
- conduction block in the single heart which failed to fibrillate ([2]; 32 mg dose): complete A-V conduction block with ventricular standstill
- Mean % Change in Contractile Force (CF) [2, 5]: -100%
- Mean % Change in Heart Rate (HR) [2, 5]: -100%
- Mean % Change in Contractile Force (CF) ([2]; 32 mg dose, 15-30 s): -64%
- Mean % Change in Heart Rate (HR) ([2]; 32 mg dose, 15-30 s): -17%
- Mean % Change in Contractile Force (CF) ([2]; 32 mg dose, 1 min): -33%
- Mean % Change in Heart Rate (HR) ([2]; 32 mg dose, 1 min): -17%
- Mean % Change in Contractile Force (CF) ([2]; 32 mg dose, 2 min): +2%
- Mean % Change in Heart Rate (HR) ([2]; 32 mg dose, 2 min): -14%
- arrhythmias (in words) ([2]; 4-32 mg): dose-related incidence of arrhythmias; also recorded: conduction delays and ventricular arrhythmias
- effect on CF and HR (in words) ([2]; 4-32 mg, maximal within 0-15 seconds): Dose-related decreases in CF and HR; also recorded: dose-related depression of contractility and heart rate
- PR and QRS intervals ([2]; ECG, 4-32 mg): dose-related increases in PR and QRS intervals
- Cumulative Mortalities/Number Dosed, Female ([3]; 25 mg/kg i.v.): 1/5
- Cumulative Mortalities/Number Dosed, Male ([3]; 25 mg/kg i.v.): 3/5
- Cumulative Mortalities/Number Dosed, Female ([3]; 31.25 mg/kg i.v.): 4/5
- Cumulative Mortalities/Number Dosed, Male ([3]; 31.25 mg/kg i.v.): 2/5
- Cumulative Mortalities/Number Dosed, Female ([3]; 37.5 mg/kg i.v.): 4/5
- Cumulative Mortalities/Number Dosed, Male ([3]; 37.5 mg/kg i.v.): 4/5
- time of death after dosing was completed ([3]; all deaths with the exception of one (4 days)): one
- acute intravenous toxicity (in words) ([3]; intravenous, mice): high degree of acute toxicity
- LD50 ([3]; intravenous, mice, 10080 min): 28 mg/kg
- LD50 ([3]; intravenous, mice, listed as 1, 10080 min): 28.0 mg/kg
- LD50 as Mn(II) ([3]; intravenous, mice, 10080 min): 0.22 mmol/kg of Mn(II)
- cause of death ([3]; intravenous, mice, thoracotomy of one mouse): cardiac arrest

SMILES: O=C([O-])CN(CCN(CC(=O)[O-])CC(=O)[O-])CC(=O)[O-].[54Mn+2].[Na+].[Na+] [^54 MnNa2 EDTA, disodium (ethylenediaminetetraacetato) manganese (II)]
- distribution, percent dose/organ (in words) ([4]; 0.5-48 hr): distributed primarily to the liver, bone with marrow, muscle and kidneys
- bone and marrow half-life ([4]; bone and marrow): > 100 h
- heart half-life, monophasic elimination ([4]; heart): approximately 8 hr
- blood disappearance/clearance (in words) ([4]; intravenous): rapidly cleared from the blood
- share associated with rapid first phase renal elimination ([4]; kidney): Approximately 81%
- renal clearance t 1/2, initial rapid phase ([4]; kidney, biphasic): < 1 h
- renal clearance t 1/2, secondary slow phase ([4]; kidney, biphasic): > 17 h
- share associated with rapid first phase hepatic elimination ([4]; liver): Approximately 92%
- hepatic clearance t 1/2, initial rapid phase ([4]; liver, biphasic): < 1 h
- hepatic clearance t 1/2, secondary slow phase ([4]; liver, biphasic): > 17 h
- spleen half-life, monophasic elimination ([4]; spleen): ~ 2 hr
- dose eliminated in the urine ([4]; within 2 hr after treatment): > 50%
